# Assay results taken from US20210220374A1, “METHODS OF TREATING TE[…]” (Clarus Therapeutics, Inc., priority 2013, published 2021).
# How the values were obtained:
# [1] = Optimal sampling time: pooled steady-state serum T data of LOT-AA and LOT-BB, 200 mg T BID as TU; format: in vivo, hypogonadal men
# Description: An investigation was conducted to identify a single optimal sampling time for monitoring the responsiveness of hypogonadal male patients subjects to chronic BID dosing of T using a SEDDS formulation of TU. Concentration data and derived pharmacokinetic parameters for 41 subjects from two studies (LOT-AA and LOT-BB) where subjects received 200 mg BID of T, as TU, for at least seven days were used in this investigation. Correlation and contingency table approaches were used in the investigation.
# Concentration data and pharmacokinetic parameters from hypogonadal male subjects that participated in study LOT-AA and study LOT-BB were combined into a single data set. From study LOT-AA, only the information from Day 7 of Treatment 3 (8 days of treatment with 200 mg BID of T, as TU) was used. Study LOT-AA contributed data from 26 subjects treated for 7 days, and study LOT-BBBB contributed data from 15 subjects treated for 28 days with 200 mg BID of T, as TU. Combining of the data from these two groups of subjects is supported by the finding from study LOT-BBBB that T steady-state is reached in 5-7 days.
# The sample collection times for these two studies both spanned a 12-hour window, but not all sample collection times were common to both studies. LOT-AA used sample collection times of 0, 1, 2, 4, 8 and 12 hours; LOT-BBBB used sample collection times of 0, 1.5, 3, 4, 5, 6, 8 and 12 hours. The current analysis used the superset of the combined set of collection times (0, 1, 1.5, 2, 3, 4, 5, 6, 8 and 12 hours). Concentration values that were missing for a subject in either of the data sets at a particular sample collection time were estimated by linear interpolation, using the existing nearest neighbor concentration values for that subject, i.e., interpolation of missing data was subject-specific.
# [2] = Seven-day repeat-dose pharmacokinetic study (study LOT-A), TU BID; format: in vivo, hypogonadal men; details: for Baseline-corrected Cavg / Tmax: serum T
# Description: The probability model was based on the pharmacokinetic results obtained from the hypogonadal patient population that participated in the two multi-dose TU treatments in study LOT-A. As noted previously, 29 hypogonadal males participated in the study, 28 of them completed Treatment Period 1 (300 mg T, as TU, BID) and 24 of them completed Treatment Period 3 (200 mg T, as TU, BID).
# Formulation B was studied for its acute tolerability and steady-state serum pharmacokinetic profile at two doses administered twice-daily to hypogonadal men. The study was designed as an open-label, repeat dose, cross-over, pharmacokinetic study (with food effect examined in one arm).
# Twenty nine (29) hypogonadal men were enrolled after giving written informed consent, 24 of which completed the study. Each subject who completed the study received a regimen of Formulation B as follows: […]
# 1. 7 daily doses of 600 mg T as TU BID (300 mg/dose), i.e., 3 capsules/dose 2. 8 daily doses of 400 mg T as TU BID (200 mg/dose)
# Doses were administered as capsules to subjects 30 minutes after initiation of meals (breakfast and dinner), except for Day 8, when the morning dose was administered fasting.
# [3] = targeted Cavg 300-1000, 41 subjects
structure (smiles),measurement,setting,value
"CCCCCCCCCCC(=O)O[C@H]1CC[C@H]2[C@@H]3CCC4=CC(=O)CC[C@]4(C)[C@H]3CC[C@]12C [TU, testosterone undecanoate]","C(4), Min","[1]; serum T, N 41",127 ng/dL
same,"C(5), Max","[1]; serum T, N 41",1690 ng/dL
same,"C(5), Mean","[1]; serum T, N 41",708 ng/dL
same,"C(5), Median","[1]; serum T, N 41",686 ng/dL
same,"C(5), Min","[1]; serum T, N 41",125 ng/dL
same,"C(6), Max","[1]; serum T, N 41",1660 ng/dL
same,"C(6), Mean","[1]; serum T, N 41",673 ng/dL
same,"C(6), Median","[1]; serum T, N 41",606 ng/dL
same,"C(6), Min","[1]; serum T, N 41",216 ng/dL
same,"C(8), Max","[1]; serum T, N 41",1910 ng/dL
same,"C(8), Mean","[1]; serum T, N 41",537 ng/dL
same,"C(8), Median","[1]; serum T, N 41",367 ng/dL
same,"C(8), Min","[1]; serum T, N 41",225 ng/dL
same,"C(12), Max","[1]; serum T, N 41",757 ng/dL
same,"C(12), Mean","[1]; serum T, N 41",278 ng/dL
same,"C(12), Median","[1]; serum T, N 41",222 ng/dL
same,"C(12), Min","[1]; serum T, N 41",84.2 ng/dL
same,"Cavg, Max","[1]; serum T, N 41",1057 ng/dL
same,"Cavg, Mean","[1]; serum T, N 41",517 ng/dL
same,"Cavg, Median","[1]; serum T, N 41",454 ng/dL
same,"Cavg, Min","[1]; serum T, N 41",192 ng/dL
same,"Cmax, Max","[1]; serum T, N 41",1910 ng/dL
same,"Cmax, Mean","[1]; serum T, N 41",970 ng/dL
same,"Cmax, Median","[1]; serum T, N 41",951 ng/dL
same,"Cmax, Min","[1]; serum T, N 41",249 ng/dL
same,"Number of subjects, Cavg in range",[1]; [3],33
same,"Number of subjects, Cavg too high",[1]; [3],3
same,"Number of subjects, Cavg too low",[1]; [3],5
same,Decrease in serum T exposures (Cmax and AUC),[2]; fasting conditions vs meal,greater than 50%
same,DHT concentrations as percent of T concentrations,[2]; in vivo,11-34%
same,Pre-dose steady-state estradiol concentrations,[2]; in vivo,20 to 30 pg/mL
same,Mean baseline T concentration (endogenous T production),"[2]; prior to Treatment Period 2, after washout",152 ng/dL
same,Mean baseline T concentration (endogenous T production),"[2]; prior to Treatment Period 3, after washout",139 ng/dL
same,Mean baseline T concentration (endogenous T production),"[2]; prior to Treatment Period 4, after washout",145 ng/dL
same,Baseline-corrected Cavg,[2]; 200 mg BID,379 ± 255
same,Baseline-corrected Cavg,[2]; 300 mg BID,586 ± 330
same,Tmax,"[2]; 300 mg BID, AM dose",4.5 ± 2.1 h
same,Tmax,"[2]; 300 mg BID, PM dose",17.9 ± 2.6 h
same,Subjects with serum T Cavg in the eugonadal range over 24 hours,"[2]; simulated 24-hour profile from 12-hour data, 200 mg T (as TU) BID, fed",77%
